Reference: paper PMC8152814, “The modulatory role of sulfated and non-sulfated small molecule heparan sulfate-glycomimetics in endothelial dysfunction: absolute structural clarification, molecular docking and simulated dynamics, SAR analyses and ADMET studies” (RSC Medicinal Chemistry, 2021)
Where two headings read alike, the source gives them in different places.

Tests used:
[1] = Turbidimetric kinetic aqueous solubility; type: physicochemical
Procedure: Physicochemical and ADMET properties of representative glycomimetics. […] The cells were incubated for 30 min in Hepes-buffered solution containing 10 μmol/L dihydroethidium (DHE), which intercalates with DNA in the presence of ROS and is detectable by fluorescence. Cells were counterstained with the nuclear stain DAPI at 0.3 μmol/L. In the following 24 h, the cell cultures were examined using a fluorescence microscope (Leica DMIRB). Sections were photographed and fluorescence was quantified using ImageJ. All parameters (pinhole, contrast, gain and offset) were held constant for all sections from the same experiment. ROS production was estimated from the ratio of ethidium/DAPI fluorescence.S6 Western blot analysis HepG2 wells were lysed in RIPA buffer containing proteinase inhibitors and the total protein was quantified using BCA protein assay kit (Pierce Biotechnology). Proteins (30 μg/well) were denatured and separated by sodium dodecyl sulfate (SDS)-polyacrylamide gel electrophoresis and transferred to polyvinylidene difluoride (PVDF) membranes. Blots were blocked for 1 h in 5% semi-skimmed milk/Tris-Buffered Saline Tween-20 (TBS-T), probed with primary rabbit anti-phospho-protein kinase B (Akt), rabbit anti-Akt (Santa Cruz Biotechnology), rabbit polyclonal anti-phospho-eNOS (Cell Signaling) overnight at 4 °C followed by washing and incubation with the corresponding horse radish peroxidase-labelled secondary antibody for 1 h at room temperature. After washing with TBS-T, membranes were incubated with ECL reagent and visualized (Amersham Pharmacia Biotech). Densitometry analysis using ImageJ© (version 1.32j, NIH) was used to quantify the protein signal.S7 Turbidimetric Aqueous Solubility Test compound (10 mM in DMSO) was serially diluted to give solutions of 0.1, 0.3, 1 and 3 mM in DMSO. Each test compound concentration was then further diluted 1 in 100 in buffer (typically 0.01 M phosphate buffered saline pH 7.4) so that the final DMSO concentration is 1 % and the final test compound concentrations are 1, 3, 10, 30 and 100 µM. The experiment is performed at 37 °C and each concentration is incubated in 7 replicate wells. The plates are incubated for 2 h at 37 °C before the absorbance is measured at 620nm. Nicardipine (pH dependent) and pyrene (pH independent) are included as control compounds. The solubility is estimated from the concentration of test compound that produces an increase in absorbance above vehicle control (1% DMSO in buffer). S11

[2] = Microsomal metabolic stability, rat liver microsomes; type: in vitro ADME; details: liver microsomes (pooled); for microsomal CLint at 3 µM / microsomal CLint at 0.75 h, 3 µM: pH 7.4; for half-life at 3 µM / half-life at 0.75 h, 3 µM: pH 7.4, 3 µM, 0.5 mg/mL protein, read-out: RLM t1/2
Procedure: Microsomal Metabolic Stability […]
the reaction. The final incubation volume is 50 µL. A minus cofactor control incubation is […]
NADPH (minus NADPH). Two control compounds are included with each species. All incubations are performed singularly for each test compound. Each compound is incubated for 0, 5, 15, 30 and 45 min. The control (minus NADPH) is incubated for 45 min. The reactions […]
Elimination rate constant (k) = (- gradient)
Intrinsic clearance (CLint)(µL/min/mg protein) = where V = Incubation volume (µL)/Microsomal protein (mg) […]
specified limits (if available).
(Molecular Devices LLC), which simultaneously performs electrophysiology measurements for […]
All cell suspensions, buffers and […]

[3] = Microsomal metabolic stability, mouse liver microsomes; details: liver microsomes (pooled), pH 7.4
Procedure: MLM assay (controls: diphenhydramine and diazepam). hERG assay (controls: quinidine and dimethylsulfoxide).
Pooled liver microsomes (final protein concentration 0.5 mg/mL), 0.1 M phosphate buffer pH
7.4 and test compound (final substrate concentration 3 µM; final DMSO concentration 0.25 %)
are pre-incubated at 37 °C prior to the addition of NADPH (final concentration 1 mM) to initiate
included for each compound tested where 0.1 M phosphate buffer pH 7.4 is added instead of
are stopped by transferring 20 µL of incubate to 60 µL methanol at the appropriate time points.
The termination plates are centrifuged at 2,500 rpm for 20 min at 4 °C to precipitate the protein.
Following protein precipitation, the sample supernatants are combined in cassettes of up to 4
compounds, internal standard is added and samples analysed using Cyprotex generic
LC-MS/MS conditions. From a plot of ln peak area ratio (compound peak area /internal
standard peak area) against time, the gradient of the line is determined. Subsequently, half-
life and intrinsic clearance are calculated using the equations below:
Relevant control compounds are assessed, ensuring intrinsic clearance values fall within the

[4] = phosphate buffered saline, turbidimetric assay, PBS pH 7.4, 37 °C, 2 h, read-out: Kinetic solubility

## COC(=O)c1cc(OC[C@@H](COS(=O)(=O)[O-])OS(=O)(=O)[O-])ccc1OCC(COS(=O)(=O)[O-])OS(=O)(=O)[O-].[Na+].[Na+].[Na+].[Na+] (mixture of isomers) [α-4, sodium 3-(4-((S)-2,3-bis(sulfonatooxy)propoxy)-2-(methoxycarbonyl)phenoxy)propane-1,2-diyl bis(sulfate)]
[1]; [4]
  solubility kinetic at 2 h: > 100 µM
[2]
  microsomal CLint at 3 µM: 9.56 µL/min/mg
  half-life at 3 µM: 145 min
[3]
  half-life at 3 µM: 1840 min
  microsomal CLint at 3 µM: 0.755 µL/min/mg

## O=C([O-])c1cc(OC[C@H](COS(=O)(=O)[O-])OS(=O)(=O)[O-])ccc1OCC(COS(=O)(=O)[O-])OS(=O)(=O)[O-].[Na+].[Na+].[Na+].[Na+].[Na+] (mixture of isomers) [β-5, sodium 5-((R)-2,3-bis(sulfonatooxy)propoxy)-2-(2,3-bis(sulfonatooxy)propoxy)benzoate]
[1]; [4]
  solubility kinetic at 2 h: > 100 µM
[2]
  microsomal CLint at 3 µM: 0.649 µL/min/mg
  half-life at 3 µM: 2140 min
[3]
  half-life at 3 µM: 482 min
  microsomal CLint at 3 µM: 2.88 µL/min/mg

## COC(=O)c1cc(OC[C@H](COS(=O)(=O)[O-])OS(=O)(=O)[O-])ccc1OCCCCOS(=O)(=O)[O-].[Na+].[Na+].[Na+] [Compound R-10, sodium (R)-3-(3-(methoxycarbonyl)-4-(4-(sulfonatooxy)butoxy)phenoxy)propane-1,2-diyl bis(sulfate)]
[1]; [4]
  solubility kinetic at 2 h: > 100 µM
[2]
  microsomal CLint at 0.75 h, 3 µM: 4.11 µL/min/mg
  half-life at 0.75 h, 3 µM: 338 min
[3]
  half-life at 0.75 h, 3 µM: 2.4 days
  microsomal CLint at 0.75 h, 3 µM: 0.402 µL/min/mg

## COC(=O)c1cc(OC[C@@H](COS(=O)(=O)[O-])OS(=O)(=O)[O-])ccc1OCCCCOS(=O)(=O)[O-].[Na+].[Na+].[Na+] [Compound S-10, sodium (S)-3-(3-(methoxycarbonyl)-4-(4-(sulfonatooxy)butoxy)phenoxy)propane-1,2-diyl bis(sulfate)]
[1]; pH 7.4
  solubility kinetic at 2 h: > 100 µM
[2]
  microsomal CLint at 0.75 h, 3 µM: 12.8 µL/min/mg
  half-life at 0.75 h, 3 µM: 109 min
[3]
  microsomal CLint at 0.75 h, 3 µM: 0.333 µL/min/mg
